Test results: patent publication US9394297B2, “Amides as pim inhibitors” (AMGEN INC., priority 2012, dated 2016)
Read-outs that look alike come from different tables or passages of the source.

Key:
Pim-2 [1] = molecular target: T1, Pim-2 (Homo sapiens (Human), UniProt Q9P1W9); experiment: Pim enzyme assay (HTRF, 96-well), Pim-2; assay type: biochemical; conditions: full length recombinant Pim-2, biotinylated-BAD (S112) peptide, 10-point curve, 45 min RT, read-out: Pim-2 IC50 IP
Method in brief: (§1)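 HTRF detection of biotinylated BAD (S112) phosphorylation by full-length recombinant His-tagged Pim-1 or Pim-2 in 60 mM Hepes pH 7.0, 0.05% BSA, 2 mM DTT at 22 °C: 2 h for Pim-1, 45 min for Pim-2. Stopped with EDTA; IC50 from 4-parameter logistic fit of percent of control.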

Pim-2 [2] = molecular target: T1, Pim-2; experiment: Pim-Mn enzyme assay (HTRF, 384-well), Pim-2; assay type: biochemical; conditions: read-out: Pim-2-Mn IC50 IP
Pim-1 [3] = molecular target: T2, Pim-1 (Homo sapiens (Human), UniProt P11309); experiment: Pim enzyme assay (HTRF, 96-well), Pim-1; assay type: biochemical; conditions: full length recombinant Pim-1, biotinylated-BAD (S112) peptide, 10-point curve, 2 h RT, read-out: Pim-1 IC50 IP
T2 sequence (P11309 whole entry): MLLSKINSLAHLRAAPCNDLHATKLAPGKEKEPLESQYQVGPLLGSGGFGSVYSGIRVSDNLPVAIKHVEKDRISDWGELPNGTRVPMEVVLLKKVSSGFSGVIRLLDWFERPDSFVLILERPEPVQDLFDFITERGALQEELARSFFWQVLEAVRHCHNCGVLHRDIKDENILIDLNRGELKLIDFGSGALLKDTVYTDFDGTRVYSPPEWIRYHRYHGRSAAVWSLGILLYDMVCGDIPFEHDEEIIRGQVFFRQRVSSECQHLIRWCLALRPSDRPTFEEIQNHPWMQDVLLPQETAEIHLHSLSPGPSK
Method in brief: as §1

[4] = tested on: KMS-12-BM myeloma cell line; experiment: Pim KMS-12 cell assay (phospho-BAD S112 / total BAD, MSD)
Pim-1 [5] = molecular target: T2, Pim-1; experiment: Pim-Mn enzyme assay (HTRF, 384-well), Pim-1; assay type: biochemical; conditions: read-out: Pim-1-Mn IC50 IP
[6] = Homo sapiens, KMS-12-BM, read-out: KMS-12-BM IC50 IP, KMS-12-BM cells, phospho-BAD (S112) vs total BAD, 1 hour 50 min with compound
[7] = Pim-2 enzyme 0.5 pM, ATP 1.5 μM, BAD (S112) 0.5 μM, HTRF, 22-point curve
[8] = Pim-1 enzyme 5 pM, ATP 1.5 μM, BAD (S112) 0.5 μM, HTRF, 22-point curve

T1 sequence (Q9P1W9 whole entry): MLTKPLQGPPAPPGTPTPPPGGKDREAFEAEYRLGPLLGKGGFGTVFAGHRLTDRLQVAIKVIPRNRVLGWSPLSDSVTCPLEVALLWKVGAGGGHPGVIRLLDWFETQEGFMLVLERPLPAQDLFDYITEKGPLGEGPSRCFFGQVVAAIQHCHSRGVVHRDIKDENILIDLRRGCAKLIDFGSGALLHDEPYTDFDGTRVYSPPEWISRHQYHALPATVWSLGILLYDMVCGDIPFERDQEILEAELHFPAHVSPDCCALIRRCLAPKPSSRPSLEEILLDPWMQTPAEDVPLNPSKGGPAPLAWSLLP

| Structure (SMILES) | IC50 (Pim-2 [1]) [nM] | IC50 (Pim-2 [2]) [nM] | IC50 (Pim-1 [3]) [nM] | IC50 [4, 6] [nM] | IC50 (Pim-1 [5]) [nM] | IC50 (Pim-2 [2]; [7]) [nM] | IC50 ([4]; read-out: KMS-12-BM IC50 IP, KMS-12-BM cells, phospho-BAD (S112) vs total BAD, 1 hour 50 min with compound) [nM] | IC50 (Pim-1 [5]; [8]) [nM] |
| --- | --- | --- | --- | --- | --- | --- | --- | --- |
| Cc1nc2cccc(-c3cc4c([nH]3)CCNC4=O)c2nc1NC1CC(F)(F)C1 [Example 145, 2-(3-((3,3-difluorocyclobutyl)amino)-2-methylquinoxalin-5-yl)-6,7-dihydro-1H-pyrrolo[3,2-c]pyridin-4(5H)-one] | 8.9 | 4.6 | 14.2 | 971 | 8.7 | – | – | – |
| Cc1nc2cccc(-c3cc4c([nH]3)CCNC4=O)c2nc1N[C@H]1CC[C@@H](N)C1 (single isomer, unassigned) [Example 142, 2-(3-((cis-3-aminocyclopentyl)amino)-2-methylquinoxalin-5-yl)-6,7-dihydro-1H-pyrrolo[3,2-c]pyridin-4(5H)-one] | 5.3 | – | 1.9 | – | – | 1.4 | 2260 | 0.7 |
| Cc1nc2cccc(-c3cc4c([nH]3)CCNC4=O)c2nc1NC1CCC1 [Example 131, 2-(3-(cyclobutylamino)-2-methylquinoxalin-5-yl)-6,7-dihydro-1H-pyrrolo[3,2-c]pyridin-4(5H)-one] | 2.6 | – | 5 | 142 | – | 0.8 | – | 1.6 |
| Cc1nc2cccc(-c3cc4c([nH]3)CCNC4=O)c2nc1NC1(CO)CCC1 [Example 146, 2-(3-((1-(hydroxymethyl)cyclobutyl)amino)-2-methylquinoxalin-5-yl)-6,7-dihydro-1H-pyrrolo[3,2-c]pyridin-4(5H)-one] | 7.9 | – | 8.9 | 481 | – | 3 | – | 6.5 |
| Cc1nc2cccc(-c3cc4c([nH]3)CCNC4=O)c2nc1NC(C)(C)CO [Example 201, 2-(3-((1-hydroxy-2-methylpropan-2-yl)amino)-2-methylquinoxalin-5-yl)-6,7-dihydro-1H-pyrrolo[3,2-c]pyridin-4(5H)-one] | 2.8 | – | 3 | 136 | – | 1.7 | – | 2.5 |
| Cc1nc2cccc(-c3cc4c([nH]3)CCNC4=O)c2nc1NCC(C)(C)C [Example 147, 2-(2-methyl-3-(neopentylamino)quinoxalin-5-yl)-6,7-dihydro-1H-pyrrolo[3,2-c]pyridin-4(5H)-one] | 1.4 | – | 2.9 | 176 | – | 0.6 | – | 1.9 |
